# Experimental data from patent US7317003B2, “Small peptides having anti-angiogenic and endothelial cell inhibition activity” (National University of Singapore, priority 1998, dated 2008).
# Where a SMILES comes first, the peptide text is derived from it.
# Assays:
# [1] = system: chick embryo chorioallantoic membrane (CAM); test: chick embryo chorioallantoic membrane (CAM) in vivo angiogenesis assay; details: for inhibition of chick CAM angiogenesis (in words): peptide on cover slip, compared to PBS control
# Protocol: Since peptides Angio-2, Angio-3 and Angio-4 all inhibited BAE cell proliferation, they were also tested in the chick embryo chorioallantoic membrane (CAM) in vivo angiogenesis assay (7). In this assay, the peptides are coated onto 2-3 mm glass squares cut from microscope cover slips. […] Peptide Angio-3 reduced microvessel density at the very low dose of 12 pg/cover slip (the lowest dose tested, comparing to a PBS control). As a positive control, recombinant angiostatin at the dose of 100 ug/cover slip was tested in the same experiment. The amount of inhibition (judging from the extent of reduction in microvessel density) from 100 ug recombinant angiostatin is equivalent to 1.2 ug of Angio-3 peptide.
# [2] = 100 mg/kg/day; cited from earlier work
# [3] = system: primary tumor growth and metastasis; details: mice; cited from earlier work
# [4] = system: bovine aorta endothelial cell (BAE); details: reported in reference 5; cited from earlier work
# [5] = system: bovine aorta endothelial cell (BAE); format: cell-based; details: 72 h; for inhibition of BAE cell proliferation (in words): bFGF 1 ng/ml
# Protocol: The peptides were tested in an in vitro bovine aorta endothelial cell (BAE) proliferation assay for their ability to inhibit BAE cell proliferation. Cells were plated into 24-well culture plates at 1.25×10^4 cells/well in complete SFM-endothelial medium (Gibco, USA). After 24 h, the medium was removed and various amounts of peptides were added into the wells in 0.5 ml of SFM-endothelial medium without bFGF. After 30 minutes incubation, bFGF was added into each well at a final concentration of 1 ng/ml together with another 0.5 ml of SFM-endothelial medium. Seventy-two hours later, cells were trypsinized and counted using a hemocytometer. Commercial E. coli recombinant human angiostatin (1 μM) was used as a control in the experiments.
# Peptides were tested in an in vitro bovine aorta endothelial cell (BAE) proliferation assay for their ability to inhibit BAE cell proliferation. Cells were plated into 24-well culture plates at the number of 1.25×10^4/well in complete SFM-endothelial media (Gibco, USA). After 24 hours, the medium was removed and various amounts of peptides were added into the wells in 0.5 ml of SFM-endothelial medium without bFGF. After 30 minutes incubation, bFGF was added into each well at a final concentration of 1 ng/ml together with another 0.5 ml of SFM-endothelial medium. Seventy-two hours later, cells were trypsinized and counted using a hemocytometer. […] The IC50 of the Endo-2, -3 and -4 peptides is estimated to be 0.4 uM, 0.3 uM and 2 uM respectively.
# [6] = system: chick embryo chorioallantoic membrane (CAM); test: chick embryo chorioallantoic membrane (CAM) in vivo angiogenesis assay; details: 10 day embryo, 12 ug/cover slip
# [7] = system: Human hepatoma cell line HepG2; details: mouse, in vivo, 15 mg/kg, 12 h
# Protocol: Human hepatoma cell line HepG2 was cultured and 1 million cells were injected subcutaneously into the right back of each 6 weeks old BALB/c nude mouse. Visible tumors appear from about 2 weeks after tumor cell injection. Mice with tumors were then randomly grouped and injected with the peptide at 300 μg/mouse every 12 h (16-19 g average weight). […] Tumor sizes were measured with a caliper every three days and volumes calculated using the formula (width)^2×length×0.52. Statistical analyses were done using student t-test using the SigmaStat software (SPSS, USA). Tumors are angiogenesis dependent. To test if peptide angio-3 can inhibit tumor growth in vivo, human hepatoma HepG2 cells were injected subcutaneously into nude mice to induce tumor formation. Tumor nodules appear in about 15-18 days after tumor cell injection. Peptide was then injected at a distant site from the tumor into tumor bearing mice at 15 mg/kg every 12 h for up to a month. […] Experiments were terminated when the control group tumors started to show necrosis.
# BAE cells = test: BAE cell cytotoxicity by trypan blue staining and cellular morphology; format: cell-based, bovine; details: 20 μM, trypan blue staining and microscopic cellular morphology
# Protocol: The IC50 of the three peptides are about 2 mM, 20 nM and 200 uM respectively.
IC50 [5] [µM],Compound,inhibition of chick CAM angiogenesis (in words) [1],inhibition of BAE cell proliferation (in words) [5],other results
,hFLT2-5: further N-terminal truncation of hFLT2 (KKFPL; Mammalian; hFLT2-5),non-functional peptide,,
,angiostatin,,,"toxicity in mice [2]: without observable toxicity; dose at which inhibition of metastasis is observed [3]: about 1 mg/kg/day; dose at which inhibition of primary tumor growth is observed [3]: about 10 mg/kg/day; reported IC50 range, endothelial cell proliferation [4]: nanomolar range"
,mVEGF: peptide designed from mammalian VEGF sequences (YPDEIEYIFKPS; Mammalian; mVEGF),dose-dependent inhibition of CAM angiogenesis,,"inhibition of chick CAM angiogenesis (FIG. 9A-9B) ([1]; 13 day embryo, various doses, 0 and 40 hours incubation): Inhibition of chick CAM angiogenesis"
~0.3,CC[C@H](C)[C@H](NC(=O)[C@@H]1CCCN1C(=O)[C@@H](N)C(C)C)C(=O)N[C@H](C(=O)N[C@@H](CC(N)=O)C(=O)N[C@@H](CC(C)C)C(=O)N[C@@H](CCCCN)C(=O)N[C@@H](CC(=O)O)C(=O)N[C@@H](CCC(=O)O)C(=O)N[C@H](C(=O)N[C@@H](CC(C)C)C(=O)N[C@@H](CO)C(=O)N1CCC[C@H]1C(=O)N[C@@H](CO)C(=O)O)C(C)C)C(C)C [Endo-3] (H-VPIVNLKDEVLSPS-OH; N-terminus and C-terminus assumed),,inhibited BAE cell proliferation in a dose-dependent manner,
,hFLT2: small peptide designed from Ig domain 2 of the extracellular region of FLT-1 (SPNITVTLKKFPL; Mammalian; hFLT2),very potent angiogenesis inhibition activity,,
,Endo-1: endostatin-derived small peptide (SPHNSYIVLPI; Mammalian; Endo-1),,only a slight inhibition effect at high doses,
~0.4,CC(C)C[C@H](NC(=O)[C@@H]1CCCN1C(=O)[C@@H](NC(=O)[C@H](CC(N)=O)NC(=O)[C@H](CC(C)C)NC(=O)[C@H](C)NC(=O)[C@@H](NC(=O)[C@H](CC(C)C)NC(=O)[C@H](Cc1c[nH]cn1)NC(=O)[C@H](CC(C)C)NC(=O)[C@@H](NC(=O)[C@@H]1CCCN1C(=O)[C@@H](N)CCC(N)=O)C(C)C)C(C)C)[C@@H](C)O)C(=O)O [Endo-2] (H-QPVLHLVALNTPL-OH; N-terminus and C-terminus assumed),,inhibited BAE cell proliferation in a dose-dependent manner,
~2,CC(C)[C@H](NC(=O)[C@H](CO)NC(=O)[C@H](CCCCN)NC(=O)[C@H](CCC(N)=O)NC(=O)[C@@H]1CCCN1C(=O)[C@H](Cc1c[nH]c2ccccc12)NC(=O)[C@H](C)NC(=O)[C@@H]1CCCN1C(=O)[C@@H](N)Cc1c[nH]cn1)C(=O)N[C@@H](Cc1c[nH]c2ccccc12)C(=O)N[C@@H](Cc1c[nH]cn1)C(=O)NCC(=O)N[C@@H](CO)C(=O)N[C@@H](CC(=O)O)C(=O)N1CCC[C@H]1C(=O)N[C@@H](CO)C(=O)O [Endo-4] (H-HPAWPQKSVWHGSDPS-OH; N-terminus and C-terminus assumed),,inhibited BAE cell proliferation in a dose-dependent manner,"inhibition of chick CAM angiogenesis (FIG. 8) ([1]; 10 day embryo, 1.8 μg/coverslip): Inhibition of chick CAM angiogenesis"
~2000,CC[C@H](C)[C@H](NC(=O)[C@H](Cc1ccc(O)cc1)NC(=O)CNC(=O)[C@H](Cc1c[nH]cn1)NC(=O)[C@H](C)NC(=O)[C@H](Cc1c[nH]cn1)NC(=O)[C@@H]1CCCN1C(=O)[C@@H](N)CO)C(=O)N1CCC[C@H]1C(=O)N[C@@H](CO)C(=O)O [Angio-2] (H-SPHAHGYIPS-OH; N-terminus and C-terminus assumed),inhibited chick CAM angiogenesis,inhibited BAE cell proliferation in a dose-dependent manner,inhibition of chick CAM angiogenesis (FIG. 5) [6]: Inhibition of chick CAM angiogenesis
~200,C[C@@H](O)[C@H](N)C(=O)N1CCC[C@H]1C(=O)N[C@@H](Cc1c[nH]cn1)C(=O)N[C@@H](CCCNC(=N)N)C(=O)N[C@@H](Cc1c[nH]cn1)C(=O)N[C@@H](CCC(N)=O)C(=O)N[C@@H](CCCCN)C(=O)N[C@H](C(=O)N1CCC[C@H]1C(=O)N[C@@H](CCC(=O)O)C(=O)O)[C@@H](C)O [Angio-4] (H-TPHRHQKTPE-OH; N-terminus and C-terminus assumed),inhibited chick CAM angiogenesis,inhibited BAE cell proliferation in a dose-dependent manner,"inhibition of chick CAM angiogenesis (FIG. 3, 4) ([1]; 4 day embryo, 120 ug/cover slip): Inhibition of chick CAM angiogenesis"
,hFLT2-7: further N-terminal truncation of hFLT2 (TLKKFPL; Mammalian; hFLT2-7),non-functional peptide,,
,fVEGF: peptide designed from Zebrafish VEGF (YPDEIEHTYIPS; Mammalian; fVEGF),dose-dependent inhibition of CAM angiogenesis,,
~0.02,C[C@@H](O)[C@H](N)C(=O)N1CCC[C@H]1C(=O)N[C@@H](Cc1c[nH]cn1)C(=O)N[C@H](C(=O)N[C@@H](Cc1c[nH]cn1)C(=O)N[C@@H](CC(N)=O)C(=O)N[C@@H](CCCNC(=N)N)C(=O)N[C@H](C(=O)N1CCC[C@H]1C(=O)N[C@@H](CCC(=O)O)C(=O)O)[C@@H](C)O)[C@@H](C)O [Angio-3] (H-TPHTHNRTPE-OH),,,inhibition of HepG2 tumor growth [7]: about 40%; cell cytotoxicity with BAE cells (BAE cells): No obvious cell cytotoxicity
